Results reported in patent publication US11478467B2 (priority 2017, dated 2022).
Like-named read-outs stand apart in the source and are kept apart here.

Assays:
[1] = system: treatment-resistant major depressive disorder; conditions: in vivo; cited from earlier work
[2] = system: Parkinson's disease psychosis; conditions: cited from earlier work
[3] = system: MK-801-induced hyperactivity; conditions: 0.1 and 0.3 mg/kg s.c.; MK-801 0.3 mg/kg i.p.; mice; cited from earlier work
[4] = Pharmacokinetic study of sarpogrelate hydrochloride i.v. in rats; assay type: in vivo, rat; conditions: after sarpogrelate hydrochloride 2 mg/kg i.v.
Protocol: Pharmacokinetic study was performed in male Wistar rats equipped with the jugular vein cannulas. Sarpogrelate hydrochloride was formulated in Pharmasolv: PBS buffer (5:95) mixture and administered at the dose of 2 mg/kg intravenously. Blood samples were collected from the jugular vein using heparin as anticoagulant at the scheduled time-points: 5 min, 15 min, 30 min, 1 h, 1.5 h, 2 h, 4 h, and 6 h. An LC-MS/MS bioanalytical method was used for the simultaneous quantification of sarpogrelate and M1 in plasma samples. […] Formation of M1 metabolite of sarpogrelate was rapid as the highest M1 concentrations were measured at the first sampling time points.

[5] = assay type: in vivo, rat; conditions: 10 mg/kg intraperitoneally, male SD rats
Protocol: Adult male SD rats were pretreated with the compound 146 or M1 (10 mg/kg intraperitoneally) and the brain and blood plasma were collected 30, 60, 120 and 240 min after M1 administration. The amount of compound in brain tissue extracts was measured using the UPLC/MS analysis.

[6] = biological target: CYP2D6 (Homo sapiens (Human), UniProt P10635); conditions: dextromethorphan as substrate; cited from earlier work
CYP2D6, sequence (P10635 whole entry): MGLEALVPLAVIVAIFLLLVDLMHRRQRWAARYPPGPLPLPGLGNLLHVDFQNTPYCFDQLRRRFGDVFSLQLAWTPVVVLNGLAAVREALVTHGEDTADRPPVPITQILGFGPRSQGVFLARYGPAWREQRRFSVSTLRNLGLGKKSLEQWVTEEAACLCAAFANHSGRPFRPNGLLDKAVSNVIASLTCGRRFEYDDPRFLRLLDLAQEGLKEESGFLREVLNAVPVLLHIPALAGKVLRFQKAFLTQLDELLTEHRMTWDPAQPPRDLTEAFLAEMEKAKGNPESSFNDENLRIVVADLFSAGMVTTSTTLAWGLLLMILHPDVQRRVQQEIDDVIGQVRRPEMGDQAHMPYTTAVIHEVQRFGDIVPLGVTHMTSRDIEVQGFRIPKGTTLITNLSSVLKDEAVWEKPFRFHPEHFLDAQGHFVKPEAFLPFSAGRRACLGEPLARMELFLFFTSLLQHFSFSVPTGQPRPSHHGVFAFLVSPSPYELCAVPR

[7] = system: generalized anxiety disorder; conditions: human, in vivo; cited from earlier work
[8] = cited from earlier work
[9] = system: rat primary mixed mesencephalic neuron-glia cultures; conditions: 1-10 micro M; cited from earlier work
[10] = system: PCP-induced hyperactivity; assay: Phencyclidine-induced hyperactivity in rats (sarpogrelate and dextromethorphan); assay type: in vivo, rat; conditions: dextromethorphan by itself
[11] = system: locomotor activity, stereotypy, ataxia; conditions: rats, cited from earlier work; for PCP-elicited hyperactivity / motor behaviors after pretreatment: 10 mg/kg PCP; for behavioral effects given alone (locomotor hyperactivity, stereotypy, ataxia): DO 15-120 mg/kg, DEX 15-120 mg/kg, PCP 1.25-20 mg/kg
[12] = high doses; cited from earlier work
[13] = Blood glucose levels and oral glucose tolerance in rats; assay type: in vivo, rat; conditions: given alone, intraperitoneal
Protocol: Test substances were administered to male Wistar (Han) rats (180-280 g at the beginning of the experiments; Janvier Labs) housed in groups under free access to food and water. After overnight food deprivation, the tip of the tail was cut, each rat was weighed, housed individually and left without stress in a quiet room. Approximately 1 hour later, baseline blood glucose was measured from a drop of blood collected from the tail tip, using a commercially available glucose-meter (OneTouch®, Lifescan) and then rats received intraperitoneal injection of sarpogrelate and/or dextromethorphan and 30 min later blood glucose was measured again and rats immediately challenged with glucose at 2 g/kg by oral gavage. Then, blood glucose was measured at 6 time-points until 180 minutes post-glucose challenge.

[14] = cited from earlier work; for basal insulin secretion: mouse or human islets or in vivo
[15] = system: NMDA receptors; conditions: compared to that of DEX; cited from earlier work
[16] = system: insomnia; conditions: human, in vivo; cited from earlier work
[17] = dose-range that covers therapeutically relevant exposures; cited from earlier work
[18] = biological target: dopamine D2 receptors (Homo sapiens (Human), UniProt P14416); conditions: cited from earlier work
dopamine D2 receptors, sequence (P14416 whole entry): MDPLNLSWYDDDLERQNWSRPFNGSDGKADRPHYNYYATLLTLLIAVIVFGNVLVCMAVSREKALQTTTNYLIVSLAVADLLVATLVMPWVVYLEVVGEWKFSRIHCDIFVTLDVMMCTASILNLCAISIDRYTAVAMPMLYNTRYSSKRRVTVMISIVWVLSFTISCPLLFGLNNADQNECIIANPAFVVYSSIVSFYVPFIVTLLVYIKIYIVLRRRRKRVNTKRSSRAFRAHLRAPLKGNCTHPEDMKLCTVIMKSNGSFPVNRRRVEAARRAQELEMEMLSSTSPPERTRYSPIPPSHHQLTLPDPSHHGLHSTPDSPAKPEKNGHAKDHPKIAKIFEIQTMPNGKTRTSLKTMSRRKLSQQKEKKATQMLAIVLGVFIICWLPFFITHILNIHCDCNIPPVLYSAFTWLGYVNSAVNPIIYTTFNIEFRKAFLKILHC

[19] = system: 5-HT2A/5-HT2C receptors; conditions: in vivo; cited from earlier work

CNC1(c2ccccc2Cl)CCCCC1=O (stereo not shown) [ketamine, 2-(2-chlorophenyl)-2-(methylamino)cyclohexan-1-one]
antidepressant activity [1]: rapid and robust antidepressant activity

CC(C)COc1ccc(CNC(=O)N(Cc2ccc(F)cc2)C2CCN(C)CC2)cc1 [ACP-103, N-(4-fluorophenylmethyl)-N-(1-methylpiperidin-4-yl)-N′-(4-(2-methylpropyloxy)phenylmethyl) carbamide (2R,3R)-dihydroxybutanedioate (2:1)]
night-time sleep and daytime wakefulness ([2]; compared with placebo): improvements on night-time sleep and daytime wakefulness | psychotic symptoms (hallucinations and delusions) ([2]; patients with moderate to severe Parkinson's disease): significantly reduced psychotic symptoms | MK-801-induced hyperactivity [3]: significantly attenuated MK-801-induced hyperactivity

COc1cccc(CCc2ccccc2OCC(O)CN(C)C)c1 (racemic) [Compound 146, 1-(dimethylamino)-3-(2-(3-methoxyphenethyl)phenoxy)propan-2-ol]
Formation of M1 metabolite of sarpogrelate [4]: rapid | M1/sarpogrelate ratio ([4]; plasma): 2.98±0.597% | total brain concentration vs blood concentration ([5]; 30, 60, 120 and 240 min): significantly exceeded the blood concentration | penetration into the brain [5]: readily penetrates into the brain | inhibition type (Dixon plots) [6]: fit well to all competitive inhibition types

COC(=O)c1c2n(c3ccccc13)Cc1ccccc1N1CCN(C)CC21.Cl (stereo not shown) [serazepine]
efficacy in generalized anxiety disorder [7]: shown efficacy

COc1ccc2c(c1)[C@@]13CCCC[C@H]1[C@@H](C2)N(C)CC3 [dextromethorphan, 3-methoxy-17-methylmorphinan]
area under the curve of blood glucose concentrations within the first 2 h of the OGTT (glucose AUC1-3 h) ([8]; 270 mg DEX vs placebo): significantly (P<0.05) smaller | maximal serum insulin concentrations following oral glucose intake ([8]; 60 and 270 mg DEX vs placebo): significantly (P<0.05) higher maximal serum insulin concentrations | fasting serum insulin and fasting blood glucose concentrations ([8]; single oral dose 60 or 270 mg, males with T2DM on metformin): led to neither higher fasting serum insulin concentrations nor lower fasting blood glucose concentrations | severe hypoglycemic events ([8]; up to a dose of 270 mg): did not provoke any severe hypoglycemic events | protection of dopamine neurons [9]: protected dopamine neurons against lipopolysaccharide (LPS)-induced reduction of dopamine uptake | motor activity in PCP-treated rats ([10]; oral administration): enhanced | motor activity in PCP-treated rats ([10]; subcutaneous administration): reduced | PCP-elicited hyperactivity / motor behaviors after pretreatment [11]: attenuate phencyclidine-induced motor behaviors | PCP-elicited hyperactivity / motor behaviors after pretreatment ([11]; listed as DEX): dose-dependently inhibited | behavioral effects given alone (locomotor hyperactivity, stereotypy, ataxia) [11]: induced moderate hyperactivity only at the higher doses | heart rate, blood pressure, temperature, and plasma bromide [12]: mild elevations of heart rate, blood pressure, temperature, and plasma bromide | blood glucose level (AUC 30-180 min after oral glucose 2 g/kg) [13]: significantly reduced blood glucose level | glucose-induced plasma insulin concentrations and glucose tolerance ([14]; DEX via drinking water 4 mg/ml overnight, glucose i.p., mice): significantly higher glucose-induced plasma insulin concentrations and glucose tolerance | basal plasma insulin and fasting blood glucose concentrations ([14]; DEX via drinking water 4 mg/ml overnight, mice): changed neither basal plasma insulin nor fasting blood glucose concentrations | basal insulin secretion [14]: did not significantly alter basal insulin secretion

CN1CC[C@@]23CCCC[C@@H]2[C@@H]1Cc1ccc(O)cc13 [DO, dextrorphan]
affinity for NMDA receptors [15]: substantially higher affinity | PCP-elicited hyperactivity / motor behaviors after pretreatment [11]: facilitated | PCP-elicited hyperactivity / motor behaviors after pretreatment ([11]; listed as dextrorphan): but not its metabolite dextrorphan | behavioral effects given alone (locomotor hyperactivity, stereotypy, ataxia) [11]: dose-dependent locomotor hyperactivity, stereotypy and ataxia | basal insulin secretion [14]: did not significantly alter basal insulin secretion

CN(C)CCO/N=C(/C=C/c1ccc(O)cc1)c1ccccc1F [eplivanserin]
clinical efficacy in insomnia [16]: demonstrated clinical efficacy in patients with insomnia

N,N-dimethyl-2-[[(1R,3S,4R)-4,7,7-trimethyl-3-phenyl-3-bicyclo[2.2.1] heptanyl] oxy]ethanamine [Compound 829]
prolactin [17]: not found to elevate prolactin | selectivity against dopamine D2 receptors [18]: at least 10 fold | down-regulation of 5-HT2A/5-HT2C receptors [19]: does not induce down-regulation of these receptors
